Consider 14 substances from patent US6417383B1, “Thermosensitive cyclotriphosphazene derivatives and a preparation method thereof” (Korea Institute of Science and Technology, priority 1999, dated 2002).

This series can be described thus: LCST (lower critical solution temperature) measured by UV/VIS spectrophotometer. In kind it is physicochemical. As to conditions: lower critical solution temperature in water; Perkin-Elmer Lamda18 UV/VIS spectrophotometer. The method, then:
Thermosensitivity in the present invention refers to the reversible phenomenon wherein a material is dissolved in water at a low temperature but precipitated as a result of the lowered solubility above at a critical temperature, and re-dissolved in water by lowering the temperature. This phenomenon is contradictory to the general phenomenon that solubility increases at higher temperatures. Thermosensitivity is often observed for water-soluble polymers that are dissolved below and precipitated above the so-called lower critical solution temperatures (LCST). Below the LCST, interaction between polymer and water molecules by hydrogen bonding is greater than the intermolecular hydrophobic interaction between polymer molecules, which results in dissolution of the polymer in water. As the temperature of the aqueous solution increases, however, the hydrogen bonding of the polymer-water molecules weakens whereas the hydrophobic interaction between the polymer molecules increases. As, the temperature of the aqueous solution reaches the LCST, the hydrophobic interaction becomes greater than the hydrogen bonding interaction between the polymer and water molecules resulting in the precipitation of the polymer in aqueous solution.
Elemental analysis of carbon, hydrogen, nitrogen in the compounds of the present invention was performed in the Special Analysis Center in our Institute by using a carbon, hydrogen and nitrogen analyzer (Perkin Eimer), and phosphorous analysis was performed using a Polyscan 61E ICP. Also, hydrogen and phosphorous nuclear magnetic resonance spectra were obtained using a Varian Gemini-300, and the LCST was measured by using a Perkin-Elmer Lamda18 UV/VIS spectrophotometer.

On to “(Poly(methoxyethyleneglycol750))(L-aspartoyldibenzylester) cyclotriphosphazene [Example 14]”, for which the LCST stood at 78.5 °C.

Turning to “(Poly(methoxyethyleneglycols550))L-aspartoyldibenzylester) cyclotriphosphazene [Example 13]”, the LCST is 69.0 °C.

With “(Poly(methoxyethyleneglycol350))(glycinebenzylester) cyclotriphosphazene [Example 8]”, the LCST amounted to 65.5 °C.

As for “(2-(2′-Methoxyethoxy)ethoxy)(L-aspartoyldiethylester) cyclotriphosphazene [Example 4]”, the LCST was determined as 47.5 °C.

Regarding “(2-(2′-Methoxyethoxy)ethoxy)(glycinebenzylester) cyclotriphosphazene [Example 2]”, the LCST is 10.5 °C.

For the substance “(2-(2′-Butoxyethoxy)ethoxy)(L-aspartoyldiethylester) cyclotriphosphazene [Example 7]”, the LCST entry is “below 0 °C”.

On to “(Poly(methoxyethyleneglycol350))(L-glutamoyldiethylester) cyclotriphosphazene [Example 12]”, for which the LCST was 73.0 °C.

In turn, “(2-(2′-Ethoxyethoxy)ethoxy)(L-aspartoyldiethylester) cyclotriphosphazene [Example 6]” had an LCST of 16.5 °C.

Regarding “(Poly(methoxyethyleneglycol350))(L-aspartoyldibenzylester)cyclotriphosphazene [Example 11]”, the LCST amounted to 42.5 °C.

On to “(2-(2′-Methoxyethoxy)ethoxy)-(aminomalonatodiethylester) cyclotriphosphazene [Example 3]”, for which the LCST came to 39.0 °C.

“(Poly(methoxyethyleneglycol350))(L-aspartoyldiethylester) cyclotriphosphazene [Example 10]” had an LCST of 83.0 °C.

Consider “(2-(2′-Methoxyethoxy)ethoxy)(glycineethylester)cyclotriphosphazene [Example 1]”, for which the LCST result was “above 100 °C”.

For the substance “(Poly(methoxyethyleneglycol350))(aminomalonatoyl diethylester)cyclotriphosphazene [Example 9]”, the LCST is 95.0 °C.

With “(2-(2′-Methoxyethoxy)ethoxy)(L-glutamoyldiethylester) cyclotriphosphazene [Example 5]”, the LCST was 30.0 °C.
